Data reported in patent US20060165644A1, “Cosmetics” (Fancl Corporation, priority 2002, published 2006).

System: Pseudomonas aeruginosa, Escherichia coli, Staphylococcus aureus
Test: Evaluation of reduction effect for inoculated bacteria
Format: cell-based
Details: about 10^7 bacteria per 1 g sample; 7 days at 25° C.; plate count
Protocol: Pseudomonas aeruginosa, Escherichia coli, Staphylococcus aureus of about 10^7 were inoculated to the samples shown in Table 3 per 1 g of the respective samples. The viable microbe cell number were measured by plate count method after cultivation for 7 days at 25° C.
The viable microbe cell number on seventh day was calculated as a residual rate by defining the number of inoculated microbes to 100%, and the antibacterial activity of the samples was evaluated by classifying the residual rate into standards of four ranks as follow.

Row | SMILES | Antibacterial activity (residual rate of viable microbes)
1 | CCCC(O)CO (centres unmarked) [Sample 10, 1,2-pentanediol] | ◯ (Residual rate lower than 10%, not lower than 0.01%)
2 | CC(O)CCO (centres unmarked) [Sample 9, 1,3-butylene glycol] | ◯ (Residual rate lower than 10%, not lower than 0.01%)
